Consider one compound from paper PMC9612383, “Biological Activity of NHC-Gold-Alkynyl Complexes Derived from 3-Hydroxyflavones” (Pharmaceutics, 2022).

Series [1] deals with E. coli 13216. Put plainly: Disk diffusion test. In kind it is cell-based. The following applies: complex 5 μg, 24 h incubation; diameter including disk (6 mm). On the procedure: (§1) To evaluate the antibacterial potential of gold derivatives, six bacterial strains were selected: E. coli, P. aeruginosa, S. enterica, E. faecalis, L. monocytogenes, S. epidermidis, S. aureus. Dis diffusion assay was performed following Clinical & Laboratory Standards Institute (CLSI) recommendations. […] Plates were and incubated for 22 h ± 2 h at 37 °C ± 1 °C and then the diameter of the inhibition zone was determined.
(Agar diffusion results depend on both activity and mobility in agar.)

Series [2] relates to S. aureus 2593. As to the kind of experiment: Disk diffusion test. The following applies: complex 5 μg, 24 h incubation; diameter including disk (6 mm). In kind it is cell-based. The protocol: as §1
Series [3] relates to P. aeruginosa. Put plainly: Disk diffusion test. In kind it is cell-based. The following applies: complex 5 μg, 24 h incubation; diameter including disk (6 mm). The protocol:
as §1

The subject of series [4] is S. enterica 14028. Put plainly: Disk diffusion test. Particulars: complex 5 μg, 24 h incubation; diameter including disk (6 mm). In kind it is cell-based. On the procedure: as §1
Series [5] concerns S. aureus 13565. Put plainly: Disk diffusion test. Particulars: complex 5 μg, 24 h incubation; diameter including disk (6 mm). In kind it is cell-based. On the procedure: as §1
Series [6] deals with S. epidermidis. Put plainly: Disk diffusion test. It is filed as cell-based. The following applies: complex 5 μg, 24 h incubation; diameter including disk (6 mm). On the procedure:
as §1

Series [7] concerns L. monocytogenes. As to the kind of experiment: Disk diffusion test. The following applies: complex 5 μg, 24 h incubation; diameter including disk (6 mm). In kind it is cell-based. The protocol:
as §1

The test system of series [8] is E. faecalis. Put plainly: Disk diffusion test. In kind it is cell-based. The following applies: complex 5 μg, 24 h incubation; diameter including disk (6 mm). The protocol: as §1
Series [9] deals with E. coli 8739. As to the kind of experiment: Disk diffusion test. It is filed as cell-based. Particulars: complex 5 μg, 24 h incubation; diameter including disk (6 mm). The protocol:
as §1

Series [10] has as its system E. coli 25922. Put plainly: Disk diffusion test. In kind it is cell-based. Particulars: complex 5 μg, 24 h incubation; diameter including disk (6 mm). The protocol:
as §1

Series [11] can be described thus: n-Octanol-water distribution coefficient, shake-flask. In kind it is physicochemical. The following applies: n-octanol / buffered aqueous solution pH 7.4. The protocol:
The n-octanol-water coefficients of the complexes were determined as previously reported using a shake-flask method. Buffered-saline distilled water (100 mL, phosphate buffer [PO4^3−] = 10 mM, [NaCl] = 0.15 M, pH 7.4) and n-octanol (100 mL) were shaken for 72 h to allow saturation of both phases. Approximately 1 mg of the complexes was dissolved in 5 mL of the aqueous phase and 5 mL of the organic phase were added, mixing for 10 min. The resulting emulsion was centrifuged to separate the phases. The concentration of the compounds in each phase was determined using UV absorbance spectroscopy. LogP was defined as log{[compound(organic)]/[compound(aqueous)]}.

Series [12] has as its system S. enterica 25928. As to the kind of experiment: Disk diffusion test. The following applies: complex 5 μg, 24 h incubation; diameter including disk (6 mm). In kind it is cell-based. The protocol:
To evaluate the antibacterial potential of gold derivatives, […] bacterial strains were selected: E. coli, P. aeruginosa, S. enterica, E. faecalis, L. monocytogenes, S. epidermidis, S. aureus. Dis diffusion assay was performed following Clinical & Laboratory Standards Institute (CLSI) recommendations. Active cultures (0.5 McFarland) from all strains were spread onto Mueller–Hinton Agar (MHA, Oxoid, Basingstoke, UK) and disks impregnated with 10 µL of each gold complex or control (DMSO for negative control, phenol for positive control) were placed. Plates were and incubated for 22 h ± 2 h at 37 °C ± 1 °C and then the diameter of the inhibition zone was determined.

For the compound `Cn1cc[n+](C)[c]1[Au-][C]#CCOc1c(-c2ccc(Br)cc2)oc2ccccc2c1=O` [1b, [Au(Lb)(IMe)] (R = Br; IMe = C5H10N2)], the “Inhibition Zone” value in series [1] is recorded as 10.95 ± 0.64 mm; in series [2], 13.76 ± 0.54 mm; in series [3], “-”; in series [4] it was 9.39 ± 1.26 mm; in [5], 16.58 ± 1.63 mm; in [6], 25.05 ± 1.48 mm. In addition, the “Inhibition Zone” value in series [7] is reported as 18.50 ± 1.41 mm; in [8], 12.50 ± 1.41 mm; in series [9], 11.10 ± 0.08 mm; in [10] it was 9.04 ± 2.17 mm; in series [12], 8.90 ± 1.56 mm. The “LogP7.4 (distribution coefficient)” value in [11] is 1.32.
